Results as given in US7745450B2, “Pyrazolo[4,3-d]pyrimidines, processes for their preparation and methods for therapy” (Institute of Experimental Botany, priority 2002, dated 2010).

Key:
cdk1/cyclin B (CDC2) = cdk1/cyclin B (CDC2) (Homo sapiens, UniProt P06493); test: CDK inhibition assay, cdk1/cyclin B (CDC2) kinase, histone phosphorylation; type: biochemical
Experimental: Selected compounds were tested for cdk1/cyclin B and cdk2/cyclin E inhibitory activity to determine the basic relationships between their interaction energy of docked complex and the inhibitory activity. Cdk2/cyclin E complex was produced in SIP insect cells co-infected with appropriate baculoviral construct. The cells were harvested 70 hours post infection in lysis buffer (50 mM Tris 7.4 pH, 150 mM NaCl, 5 mM EDTA, 20 mM NaF, 1% Tween 20, protease inhibitors) for 30 min on ice and the soluble fraction was recovered by centrifugation at 14.000 g for 10 min. The protein extract was stored at −80° C. until use. The final point test system for kinase activity measurement was used to carry out experiments on the kinetics under linear conditions. The assay mixture contained 1 mg/ml histone (Sigma Type III-S), 15 μM ATP, 0.2 μCi [γ-^32P] ATP and tested compound in a final volume of 20 μl, all in reaction buffer: 50 mM Hepes 7.4 pH, 10 mM MgCl2, 5 mM EGTA, 10 mM 2-glycerolphosphate, 1 mM NaF, 1 mM DTT and protease inhibitors. […] The measurement of kinase inhibition employed the digital imaging analyzer BAS 1800. The kinase activity was expressed as a percentage of maximum activity and the IC50 value was determined by graphic analysis. The kinase activity is expressed as a percentage of maximum activity, the apparent inhibition constants are determined by graphic analysis from dose-response curves presented on FIG. 1.

IκB-α kinase = IκB-α kinase inhibition, in vitro kinase assay; type: biochemical

cdk1/cyclin B (CDC2), sequence (P06493 whole entry, species assumed): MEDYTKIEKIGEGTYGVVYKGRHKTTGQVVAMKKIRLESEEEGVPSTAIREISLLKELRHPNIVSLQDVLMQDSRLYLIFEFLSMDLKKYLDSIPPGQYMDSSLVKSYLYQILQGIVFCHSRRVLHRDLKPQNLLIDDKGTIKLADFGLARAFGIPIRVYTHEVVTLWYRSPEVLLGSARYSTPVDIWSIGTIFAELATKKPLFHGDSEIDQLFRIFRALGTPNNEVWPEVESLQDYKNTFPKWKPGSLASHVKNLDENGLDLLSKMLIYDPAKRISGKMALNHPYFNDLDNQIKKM
cdk1/cyclin B (CDC2), sequence (P14635 whole entry partner, species assumed): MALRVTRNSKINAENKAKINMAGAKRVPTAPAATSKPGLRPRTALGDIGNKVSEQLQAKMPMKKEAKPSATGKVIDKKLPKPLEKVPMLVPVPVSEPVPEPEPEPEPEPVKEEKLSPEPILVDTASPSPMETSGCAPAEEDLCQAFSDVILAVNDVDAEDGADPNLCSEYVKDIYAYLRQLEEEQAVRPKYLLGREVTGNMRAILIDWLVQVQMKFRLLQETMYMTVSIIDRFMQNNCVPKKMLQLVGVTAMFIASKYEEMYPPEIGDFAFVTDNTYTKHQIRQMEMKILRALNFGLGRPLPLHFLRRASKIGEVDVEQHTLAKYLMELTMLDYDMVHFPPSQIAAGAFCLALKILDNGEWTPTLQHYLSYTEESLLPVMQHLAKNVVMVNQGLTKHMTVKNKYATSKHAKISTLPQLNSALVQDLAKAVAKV

SMILES | IC50 (cdk1/cyclin B (CDC2)) | IC50 (IκB-α kinase)
CC(C)c1n[nH]c2c(NCc3c(O)cc(Cl)cc3O)nc(N[C@@H](CO)C(C)C)nc12 | 1 nM | 2 nM
CC(C)c1n[nH]c2c(NCc3ccccc3)nc(NCCO)nc12 | 1000 nM | 2300 nM
CC(=O)Oc1cccc(CNc2nc(NCCO)nc3c(C)n[nH]c23)c1 | 400 nM | 1700 nM
CC(C)c1n[nH]c2c(NCc3ccccc3O)nc(N[C@@H](CO)C(C)C)nc12 | 0.5 nM | 1 nM
CC(C)c1n[nH]c2c(NCc3cc(O)c(Cl)cc3O)nc(N[C@@H](CO)C(C)C)nc12 | 0.8 nM | 1 nM
Cc1n[nH]c2c(NCc3c(O)cc(Cl)cc3O)nc(NCCO)nc12 | 5 nM | 12 nM
Cc1n[nH]c2c(NCc3ccccc3O)nc(NCCO)nc12 | 20 nM | 50 nM
CC(C)c1n[nH]c2c(Nc3cccc(Cl)c3)nc(NCCCO)nc12 | 80 nM | 200 nM
Cc1n[nH]c2c(NCc3ccc(Cl)c(O)c3O)nc(NCCO)nc12 | 9 nM | 21 nM
Cc1n[nH]c2c(NCc3ccc(Cl)c(N)c3)nc(NCCO)nc12 | 200 nM | 800 nM
Cc1n[nH]c2c(Nc3cccc(Cl)c3)nc(NCCO)nc12 | 40 nM | 90 nM
Cc1n[nH]c2c(NCc3c(N)cccc3Cl)nc(NCCO)nc12 | 40 nM | 80 nM
Cc1n[nH]c2c(Nc3ccc(Cl)c(C(=O)O)c3)nc(NCCO)nc12 | 5 nM | 10 nM
Cc1n[nH]c2c(NC(CO)c3ccccc3)nc(NCCO)nc12 (racemic) | 200 nM | 400 nM
CC(C)c1n[nH]c2c(N(C)Cc3ccc(O)c(O)c3)nc(N[C@@H](CO)C(C)C)nc12 | 30 nM | 110 nM
CC[C@H](CO)Nc1nc(NCc2ccc(O)c(O)c2)c2[nH]nc(C(C)C)c2n1 | 500 nM | 1100 nM
CC(C)c1n[nH]c2c(Nc3cccc(Cl)c3)nc(N(CCO)CCO)nc12 | 90 nM | 190 nM
COc1cc(O)c(CNc2nc(N[C@@H](CO)C(C)C)nc3c(C(C)C)n[nH]c23)c(O)c1 | 0.7 nM | 1.6 nM
CC[C@H](CO)Nc1nc(NC(CO)c2ccccc2)c2[nH]nc(C(C)C)c2n1 (mixture of isomers) | 90 nM | 210 nM
CC(C)c1n[nH]c2c(NCc3ccccc3)nc(N(CCO)CCO)nc12 | 400 nM | 1100 nM
Cc1n[nH]c2c(NCc3ccccc3)nc(N(CCO)CCO)nc12 | 900 nM | 2100 nM
CC[C@H](CO)Nc1nc(N(C)CCc2ccc(O)c(O)c2)c2[nH]nc(C(C)C)c2n1 | 720 nM | 1500 nM
COc1ccc(CNc2nc(N[C@@H](CO)C(C)C)nc3c(C(C)C)n[nH]c23)c(O)c1O | 0.4 nM | 1.2 nM
COc1cc(O)c(CNc2nc(N[C@@H](CO)C(C)C)nc3c(C(C)C)n[nH]c23)cc1O | 0.6 nM | 1.5 nM
COc1cc(O)c(CNc2nc(NCCO)nc3c(C)n[nH]c23)c(O)c1 | 4 nM | 9 nM
Cc1n[nH]c2c(Nc3ccc(O)c(C(=O)O)c3)nc(NCCO)nc12 | 20 nM | 50 nM
CC[C@H](CO)Nc1nc(NCc2ccccc2O)c2[nH]nc(C(C)C)c2n1 | 8 nM | 12 nM

The remaining molecules from weak to strong by IC50 (cdk1/cyclin B (CDC2)), led by results:

IC50 (cdk1/cyclin B (CDC2)) | IC50 (IκB-α kinase) | SMILES
5000 nM | 11000 nM | Cc1n[nH]c2c(NCc3ccc(O)c(O)c3)nc(NCCO)nc12
4000 nM | 9300 nM | Cc1n[nH]c2c(NCc3ccccc3)nc(NCCO)nc12 [2-hydroxyethylamino; benzylamino; methyl]
700 nM | 1800 nM | Cc1n[nH]c2c(NCc3ccccc3)nc(NCCCO)nc12
700 nM | 900 nM | Cc1n[nH]c2c(N(C)Cc3ccc(O)c(O)c3)nc(NCCO)nc12
600 nM | 700 nM | Cc1n[nH]c2c(NCc3ccc(Cl)c(N)c3N)nc(NCCO)nc12
500 nM | 1200 nM | CC(=O)Oc1ccccc1CNc1nc(NCCO)nc2c(C)n[nH]c12
230 nM | 510 nM | CC[C@H](CO)Nc1nc(N(C)Cc2ccc(O)c(O)c2)c2[nH]nc(C(C)C)c2n1
150 nM | 310 nM | CC(C)c1n[nH]c2c(NCc3ccc(O)c(O)c3)nc(N[C@@H](CO)C(C)C)nc12
110 nM | 280 nM | CC(C)c1n[nH]c2c(Nc3cccc(Cl)c3)nc(NCCO)nc12
90 nM | 210 nM | Cc1n[nH]c2c(Nc3ccccc3)nc(NCCO)nc12 [2-hydroxyethylamino; anilino; methyl]
90 nM | 150 nM | CC(C)c1n[nH]c2c(N(C)CCc3ccc(O)c(O)c3)nc(N[C@@H](CO)C(C)C)nc12
80 nM | 240 nM | Cc1n[nH]c2c(NCc3cccc(O)c3)nc(NCCO)nc12
60 nM | 150 nM | CC(C)c1n[nH]c2c(NC(CO)c3ccccc3)nc(N[C@@H](CO)C(C)C)nc12 (mixture of isomers)
20 nM | 50 nM | CC(=O)c1ccccc1CNc1nc(N[C@@H](CO)C(C)C)nc2c(C(C)C)n[nH]c12
12 nM | 29 nM | Cc1n[nH]c2c(Nc3ccc(N)c(Cl)c3)nc(NCCO)nc12
10 nM | 50 nM | CC(=O)c1ccccc1CNc1nc(NCCO)nc2c(C)n[nH]c12
10 nM | 40 nM | COc1cccc(CNc2nc(NCCO)nc3c(C)n[nH]c23)c1O

IC50 (cdk1/cyclin B (CDC2)) | IC50 (IκB-α kinase) | SMILES
10 nM | 40 nM | CC[C@H](CO)Nc1nc(NCc2cccc(C(C)=O)c2)c2[nH]nc(C(C)C)c2n1
10 nM | 30 nM | Cc1n[nH]c2c(NCc3cccc(Cl)c3O)nc(NCCO)nc12
10 nM | 30 nM | Cc1cccc(CNc2nc(NCCO)nc3c(C)n[nH]c23)c1O
9 nM | 23 nM | Cc1n[nH]c2c(Nc3ccc(Cl)c(N)c3)nc(NCCO)nc12
9 nM | 19 nM | Cc1n[nH]c2c(Nc3ccc(Cl)cc3)nc(NCCO)nc12
8 nM | 20 nM | Cc1n[nH]c2c(Nc3ccc(Br)cc3)nc(NCCO)nc12
8 nM | 28 nM | COc1ccc(CNc2nc(NCCO)nc3c(C)n[nH]c23)c(O)c1O
7 nM | 15 nM | COc1cc(O)c(CNc2nc(NCCO)nc3c(C)n[nH]c23)cc1O
7 nM | 14 nM | Cc1n[nH]c2c(Nc3ccc(C(=O)O)c(Cl)c3)nc(NCCO)nc12
3 nM | 11 nM | CC[C@H](CO)Nc1nc(NCc2ccc(Cl)c(O)c2O)c2[nH]nc(C(C)C)c2n1
2 nM | 5 nM | CC[C@H](CO)Nc1nc(NCc2ccc(OC)c(O)c2O)c2[nH]nc(C(C)C)c2n1
2 nM | 6 nM | CC[C@H](CO)Nc1nc(NCc2cc(O)c(OC)cc2O)c2[nH]nc(C(C)C)c2n1
2 nM | 4 nM | CC(C)c1n[nH]c2c(NCc3cccc(O)c3)nc(N[C@@H](CO)C(C)C)nc12
1 nM | 5 nM | CC(=O)c1cccc(CNc2nc(N[C@@H](CO)C(C)C)nc3c(C(C)C)n[nH]c23)c1
0.8 nM | 3 nM | CC[C@H](CO)Nc1nc(NCc2c(O)cc(OC)cc2O)c2[nH]nc(C(C)C)c2n1
0.2 nM | 1 nM | CC(C)c1n[nH]c2c(NCc3ccc(Cl)c(O)c3O)nc(N[C@@H](CO)C(C)C)nc12
